US20230085307A1, “PYRIDAZINONE COMPOUND AND HERBICIDE” (NISSAN CHEMICAL CORPORATION, priority 2019, published 2023)

Tests used:
windgrass = experiment: Test Example 4: herbicidal effect by soil treatment (Table 19, symbol L); type: in vivo, windgrass (Apera spica-venti)
In short: (§1)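 Scoring uses the grading scale of an earlier test, three weeks post-application. Treatment consists of spraying a diluted emulsion formulation across the surface of sterilized diluvial soil in which seeds are buried near 1.5 cm deep; boxes are kept in a greenhouse between 25° C. and 30° C.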

late watergrass [1] = experiment: Test Example 2: herbicidal activity, application during weed generation under submerged conditions (Table 17, symbol A); type: in vivo, late watergrass (Echinochloa oryzicola); conditions: application during weed generation, submerged conditions
In short: (§2)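 3-wk visual-criteria score after one water-surface dose. Emulsion formulation, water-diluted to set rate; applied at 1–2 leaf stage; alluvial soil, 4 cm standing water; seeds co-sown; greenhouse 25–30° C.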

Japanese bulrush = experiment: Test Example 1: herbicidal activity, application before weed generation under submerged conditions (Table 16, symbol B); type: in vivo, Japanese bulrush (Schoenoplectus juncoides)
In short: (§3)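 Submerged Wagner pots (alluvial soil, 4 cm water) sown with weed seeds and planted with 2.5-leaf rice seedlings; emulsifiable concentrate diluted in water applied to water surface on sowing day. Held in greenhouse at 25-30 °C; injury scored 0-5 by herbicidal rate after three weeks.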

Chinese sprangletop = experiment: Test Example 3: herbicidal effect by foliage application, Wagner pot (Table 18, symbol D); type: in vivo, chinese sprangletop (Leptochloa chinensis)
In short: (§4)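 Plants were sown in alluvial soil held under 0.1–0.5 cm standing water and grown 14 days in a greenhouse at 25–30 °C. An emulsifiable formulation, water-diluted to the set dose, was then sprayed onto the foliage, and effects were scored three weeks later using previously defined criteria.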

late watergrass [2] = experiment: Test Example 1: herbicidal activity, application before weed generation under submerged conditions (Table 16, symbol A); type: in vivo, late watergrass (Echinochloa oryzicola)
In short: as §3

green foxtail = experiment: Test Example 5: herbicidal effect by foliage application, plastic box (Table 20, symbol G); type: in vivo, green foxtail (Setaria viridis); conditions: foliage application; for effect on green foxtail (G): 320 g/ha, 3 weeks after application
In short: (§5)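 Post-emergence foliar test in sterilized diluvial soil. Compound applied as water-diluted emulsion at a predetermined rate to 14-day-old plants; evaluation at three weeks.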

rice flat sedge = experiment: Test Example 3: herbicidal effect by foliage application, Wagner pot (Table 18, symbol E); type: in vivo, rice flat sedge (Cyperus iria)
In short: as §4

blackgrass = experiment: Test Example 5: herbicidal effect by foliage application, plastic box (Table 20, symbol J); type: in vivo, blackgrass (Alopecurus myosuroides); conditions: foliage application; for effect on blackgrass (J): 320 g/ha, 3 weeks after application
In short: as §5

Italian ryegrass = experiment: Test Example 4: herbicidal effect by soil treatment (Table 19, symbol K); type: in vivo, Italian ryegrass (Lolium multiflorum)
In short: as §1

oval-leafed pondweed = experiment: Test Example 2: herbicidal activity, application during weed generation under submerged conditions (Table 17, symbol C); type: in vivo, oval-leafed pondweed (Monochoria vaginalis); conditions: application during weed generation, submerged conditions
In short: as §2

wild oat = experiment: Test Example 5: herbicidal effect by foliage application, plastic box (Table 20, symbol I); type: in vivo, wild oat (Avena fatua); conditions: foliage application; for effect on wild oat (I): 320 g/ha, 3 weeks after application
In short: as §5

barnyard grass [3] = experiment: Test Example 3: herbicidal effect by foliage application, Wagner pot (Table 18, symbol H); type: in vivo, barnyard grass (Echinochloa crus-galli)
In short: as §4

persian speedwell = experiment: Test Example 5: herbicidal effect by foliage application, plastic box (Table 20, symbol R); type: in vivo, Persian speedwell (Veronica persica); conditions: foliage application; for effect on persian speedwell (R): 320 g/ha, 3 weeks after application
In short: as §5

redroot pigweed = experiment: Test Example 4: herbicidal effect by soil treatment (Table 19, symbol N); type: in vivo, redroot pigweed (Amaranthus retroflexus)
In short: as §1

barnyard grass [4] = experiment: Test Example 5: herbicidal effect by foliage application, plastic box (Table 20, symbol H); type: in vivo, barnyard grass (Echinochloa crus-galli); conditions: foliage application; for effect on barnyard grass (H): 320 g/ha, 3 weeks after application
In short: as §5

southern crabgrass = experiment: Test Example 5: herbicidal effect by foliage application, plastic box (Table 20, symbol F); type: in vivo, southern crabgrass (Digitaria ciliaris); conditions: foliage application; for effect on southern crabgrass (F): 320 g/ha, 3 weeks after application
In short: as §5

[5] = AAH 368 g/ha, three weeks after application

Row | Compound | L: windgrass, herbicidal effect rating (windgrass; AAH 320 g/ha) | herbicidal effect rating, A: late watergrass (late watergrass [1]; AAH 320 g/ha) | Herbicidal effect on B: Japanese bulrush (grade 0-5) (Japanese bulrush; 320 g/ha applied herbicide) | herbicidal effect on D (Chinese sprangletop), rating 0-5 (Chinese sprangletop; 320 g/ha) | Herbicidal effect on A: late watergrass (grade 0-5) (late watergrass [2]; 320 g/ha applied herbicide) | effect on green foxtail (G) (green foxtail) | herbicidal effect on E (rice flat sedge), rating 0-5 (rice flat sedge; 320 g/ha) | effect on blackgrass (J) (blackgrass) | K: Italian ryegrass, herbicidal effect rating (Italian ryegrass; AAH 320 g/ha) | herbicidal effect rating, C: oval-leafed pondweed (oval-leafed pondweed; AAH 320 g/ha) | effect on wild oat (I) (wild oat) | herbicidal effect on H (barnyard grass), rating 0-5 (barnyard grass [3]; 320 g/ha) | effect on persian speedwell (R) (persian speedwell) | N: redroot pigweed, herbicidal effect rating (redroot pigweed; AAH 320 g/ha) | effect on barnyard grass (H) (barnyard grass [4]) | effect on southern crabgrass (F) (southern crabgrass) | other results
1 | COCCOc1ccc(-c2sc3ccccc3c2-c2c(O)c(C)nn(C)c2=O)cc1 [1-148] | – | – | – | – | – | – | – | – | – | – | – | – | – | – | – | – | L: windgrass, herbicidal effect rating (windgrass; AAH 368 g/ha): 0 (Herbicidal rate of 5% or less (almost no effect)); herbicidal effect rating, A: late watergrass (late watergrass [1]; AAH 368 g/ha): 3 (Herbicidal rate of 40% or more and less than 70%); Herbicidal effect on B: Japanese bulrush (grade 0-5) (Japanese bulrush; 368 g/ha applied herbicide): 3 (Herbicidal rate of 40% or more and less than 70%); herbicidal effect on D (Chinese sprangletop), rating 0-5 (Chinese sprangletop; 368 g/ha): 4 (Herbicidal rate of 70% or more and less than 90%); Herbicidal effect on A: late watergrass (grade 0-5) (late watergrass [2]; 368 g/ha applied herbicide): 3 (Herbicidal rate of 40% or more and less than 70%); G: green foxtail, herbicidal effect (green foxtail; [5]): 5 (Herbicidal rate of 90% or more (almost completely withered)); herbicidal effect on E (rice flat sedge), rating 0-5 (rice flat sedge; 368 g/ha): 5 (Herbicidal rate of 90% or more (almost completely withered)); J: blackgrass, herbicidal effect (blackgrass; [5]): 4 (Herbicidal rate of 70% or more and less than 90%); K: Italian ryegrass, herbicidal effect rating (Italian ryegrass; AAH 368 g/ha): 5 (Herbicidal rate of 90% or more (almost completely withered)); herbicidal effect rating, C: oval-leafed pondweed (oval-leafed pondweed; AAH 368 g/ha): 1 (Herbicidal rate of 5% or more and less than 20%); I: wild oat, herbicidal effect (wild oat; [5]): 4 (Herbicidal rate of 70% or more and less than 90%); herbicidal effect on H (barnyard grass), rating 0-5 (barnyard grass [3]; 368 g/ha): 5 (Herbicidal rate of 90% or more (almost completely withered)); R: persian speedwell, herbicidal effect (persian speedwell; [5]): 5 (Herbicidal rate of 90% or more (almost completely withered)); N: redroot pigweed, herbicidal effect rating (redroot pigweed; AAH 368 g/ha): 5 (Herbicidal rate of 90% or more (almost completely withered)); H: barnyard grass, herbicidal effect (barnyard grass [4]; [5]): 5 (Herbicidal rate of 90% or more (almost completely withered)); F: southern crabgrass, herbicidal effect (southern crabgrass; [5]): 5 (Herbicidal rate of 90% or more (almost completely withered))
2 | Cc1nn(C)c(=O)c(-c2c(-c3ccc(OCCC(F)(F)F)cc3)sc3ccccc23)c1O [1-206] | 3 (Herbicidal rate of 40% or more and less than 70%) | 5 (Herbicidal rate of 90% or more (almost completely withered)) | 5 (Herbicidal rate of 90% or more (almost completely withered)) | 5 (Herbicidal rate of 90% or more (almost completely withered)) | 5 (Herbicidal rate of 90% or more (almost completely withered)) | 5 (Herbicidal rate of 90% or more (almost completely withered)) | 5 (Herbicidal rate of 90% or more (almost completely withered)) | 5 (Herbicidal rate of 90% or more (almost completely withered)) | 5 (Herbicidal rate of 90% or more (almost completely withered)) | 5 (Herbicidal rate of 90% or more (almost completely withered)) | 2 (Herbicidal rate of 20% or more and less than 40%) | 5 (Herbicidal rate of 90% or more (almost completely withered)) | 5 (Herbicidal rate of 90% or more (almost completely withered)) | 5 (Herbicidal rate of 90% or more (almost completely withered)) | 5 (Herbicidal rate of 90% or more (almost completely withered)) | 5 (Herbicidal rate of 90% or more (almost completely withered)) | –
3 | C=C(Br)COc1ccc(-c2sc3ccccc3c2-c2c(O)c(C)nn(C)c2=O)cc1 [1-215] | 0 (Herbicidal rate of 5% or less (almost no effect)) | 3 (Herbicidal rate of 40% or more and less than 70%) | 4 (Herbicidal rate of 70% or more and less than 90%) | 5 (Herbicidal rate of 90% or more (almost completely withered)) | 5 (Herbicidal rate of 90% or more (almost completely withered)) | 5 (Herbicidal rate of 90% or more (almost completely withered)) | 5 (Herbicidal rate of 90% or more (almost completely withered)) | 2 (Herbicidal rate of 20% or more and less than 40%) | 0 (Herbicidal rate of 5% or less (almost no effect)) | 3 (Herbicidal rate of 40% or more and less than 70%) | 3 (Herbicidal rate of 40% or more and less than 70%) | 5 (Herbicidal rate of 90% or more (almost completely withered)) | 5 (Herbicidal rate of 90% or more (almost completely withered)) | 5 (Herbicidal rate of 90% or more (almost completely withered)) | 5 (Herbicidal rate of 90% or more (almost completely withered)) | 2 (Herbicidal rate of 20% or more and less than 40%) | –
